Common to all, as to type: cell-based
The subject of experiment [1] is Pseudomonas aeruginosa ATCC 27853 planktonic and biofilm cultures. As to conditions: for Fold Tolerance (MBEC:MBC100) / MBEC / MBC100: MSVP; for MBEC: biofilm; for MIC: minimal media (MSVP), did not change with exposure time, mean ± SD of 28 trials; for MBC100: planktonic.
The test system of experiment [2] is Pseudomonas aeruginosa ATCC 27853 cell populations. As to conditions: 27 hours exposure.
Experiment [3] deals with Pseudomonas aeruginosa ATCC 27853 planktonic and biofilm cultures. Conditions: for Fold Tolerance (MBEC:MBC100) / MBEC / MBC100: LB+B1; for MBEC: biofilm; for MBC100: planktonic; for MIC: rich media (LB+B1), 4 replicates.
Experiment [4] deals with Staphylococcus aureus ATCC 29213 planktonic and biofilm bacteria. Put plainly: MBEC-HTP antibiotic susceptibility, S. aureus. As to conditions: CA-MHB, 24 h exposure; for MIC: S. aureus ATCC 29213; for MBEC: S. aureus ATCC 29213 biofilm; for MBC: S. aureus ATCC 29213 planktonic. The method, then: (§1) Luria-Bertani medium was chosen for two reasons: 1) its established use in studies of metal resistance, and 2) because of the use of rich media in NCCLS testing protocols for antimicrobial resistance. Antibiotic resistance assays were performed using cation-adjusted Mueller-Hinton broth (CA-MHB, BDH Inc.) and subcultures, MBC and MBEC bacterial counts were performed using trypticase soy agar (TSA, Difco).
(§2) The present study used a novel high throughput method for screening biofilm susceptibility to metal cations and oxyanions: the MBEC device (MBEC Bioproducts Inc., Edmonton, Alberta, Canada, http://www.mbec.ca). The MBEC high throughput (MBEC-HTP) assay system consists of a shallow trough into which a plastic lid with 96 pegs fits. This peg lid also fits over a standard 96-well microtitre plate which can subsequently be used to setup serial dilutions of antimicrobial compounds. The bottom half of the MBEC device is a trough that has shallow channels that direct flow of an inoculated suspension over the pegs on the lid.
(§3) The inoculum was standardized to a 1.0 McFarland standard and verified by viable counts. The 1.0 McFarland standard inoculum was diluted 30-fold with growth media, which served as the growth suspension to inoculate the MBECJ device.
(§4) P. aeruginosa was incubated for 9 h, S. aureus for 24 h and E. coli for 24 h to generate approximately equivalent biofilms of 6.0×10^6 cfu/peg. Following the incubation period, growth of biofilm and planktonic cultures in the MBECJ device were discerned and verified by viable cell counts.
(§5) Chloramphenicol (Sigma) was prepared in 50% ethanol and treated identically to the other antibiotics. 10% ethanol was added to the growth controls for chloramphenicol assays. […] Starting with the working solutions, serial two-fold dilutions were made in the wells of a 96-well plate (the challenge plate), leaving the first well of each row as a sterility control and the second as a growth control (i.e. no antibiotic).

The test system of experiment [5] is Pseudomonas aeruginosa ATCC 27853 planktonic and biofilm bacteria. Kind of experiment: MBEC-HTP antibiotic susceptibility, P. aeruginosa. Conditions: CA-MHB, 24 h exposure; for MIC: P. aeruginosa ATCC 27853; for MBEC: P. aeruginosa ATCC 27853 biofilm; for MBC: P. aeruginosa ATCC 27853 planktonic. The method, then: as §1, §2, §3, §4, §5
The test system of experiment [6] is Pseudomonas aeruginosa biofilms. Put plainly: Metal and antibiotic combination assay. As to conditions: median of 4 replicates. The method, then: Cells were grown to a mean density of 6.0×10^6 cfu/peg in LB+B1 media.
• 1. […] All data are median values based on 4 replicates.

The subject of experiment [7] is Escherichia coli JM109 planktonic and biofilm bacteria. Put plainly: MBEC-HTP antibiotic susceptibility, E. coli. As to conditions: CA-MHB, 24 h exposure. The method, then: as §1, §2, §3, §4, §5
The mark [8] stands for this setting: antibiotic in combination with 500 μg/ml Zn^2+.
The mark [9] stands for this setting: antibiotic or heavy metal alone, LB+B1.

≈ marks a conversion by molar mass, not a printed value. Read-outs that look alike come from different tables or passages of the source.

The source of these data is patent US20080118573A1, “Use of Heavy Metals in the Treatment of Biofilms” (priority 2004, published 2008).

On to `[Cl-].[Cl-].[Co+2]` [Co^2+, cobalt (II) chloride], for which the “Fold Tolerance (MBEC:MBC100)” value in experiment [1] (exposure time 2 to 6 h) is 2.0; in experiment [1] (exposure time 2 h) it was “at least 2”; in experiment [1] (exposure time 8 h), 1.3; in experiment [1] (exposure time 10 h), 1.2; in experiment [1] (exposure time 27 h) it was 1.0; in experiment [3] (exposure time 2 h), 2.7. Further, in experiment [3] (exposure time 27 h), the “Fold Tolerance (MBEC:MBC100)” value is recorded as 2.0. Also, the MBEC result in experiment [1] (exposure time 2 to 6 h) was “≧278 mM”; in experiment [1] (exposure time 8 h) it was 139 ± 0 mM; in experiment [1] (exposure time 10 h), 209 ± 80 mM; in experiment [1] (exposure time 27 h) it was 116 ± 36 mM; in experiment [3] (exposure time 2 h), “≧280 mM”; in experiment [3] (exposure time 27 h), “≧280 mM”. In addition, the figures for the MIC in experiment [1] and in experiment [3] were 2.0 ± 0.8 mM and 7.6 ± 2.2 mM, respectively. The MBC100 in experiment [1] (exposure time 2 to 6 h) was 139 ± 0 mM; in experiment [1] (exposure time 8 h), 104 ± 40 mM; in experiment [1] (exposure time 10 h), 174 ± 70 mM; in experiment [1] (exposure time 27 h), 114 ± 44 mM; in experiment [3] (exposure time 2 h), 104 ± 40 mM; in experiment [3] (exposure time 27 h), 140 ± 0 mM. In addition, the “eradication of the biofilm cultures with extended exposure times” value in experiment [2] is reported as “complete eradication”.

Regarding Gentamicin, the MIC in experiment [4] was below 2 mg/L; in experiment [5], 10 ± 4 mg/L; in experiment [6] (setting [8]), 64 mg/L; in experiment [6] (setting [9]) it was 8 mg/L. The MBEC in experiment [4] was 3.5 ± 1 µg/mL; in experiment [5], above 1024 µg/mL; in experiment [6] (setting [9]), above 1024 µg/mL. Further, the MBC came out at 4 ± 0 mg/L in experiment [4], 28 ± 8 mg/L in experiment [5], 128 mg/L in experiment [6] (setting [8]) and 32 mg/L in experiment [6] (setting [9]).

Turning to `O=C(N[C@H](CO)[C@H](O)c1ccc([N+](=O)[O-])cc1)C(Cl)Cl` [Chloramphenicol], the values for the MBEC in experiment [4], in experiment [5] and in experiment [7] (E. coli JM109 biofilm) were above 1024 µg/mL, above 512 µg/mL and above 256 µg/mL, respectively. The MIC was 80 ± 32 mg/L (≈ 248 µM) in experiment [4] (Staphylococcus aureus, ATCC29213, read-out: MIC); above 512 mg/L in experiment [5] (Pseudomonas aeruginosa, ATCC27853, read-out: MIC); 3.5 ± 1 mg/L (≈ 10.8 µM) in experiment [7] (Escherichia coli, E. coli JM109, read-out: MIC). The MBC is 1020 mg/L (≈ 3170 µM) in experiment [4] (Staphylococcus aureus, ATCC29213, read-out: MBC); above 512 mg/L in experiment [5] (Pseudomonas aeruginosa, ATCC27853, read-out: MBC); 128 mg/L (≈ 396 µM) in experiment [7] (Escherichia coli, E. coli JM109 planktonic, read-out: MBC).

As to lead nitrate [Pb^2+], the “Fold Tolerance (MBEC:MBC100)” value in experiment [1] (exposure time 2 to 4 h) is on record as 4.0; in experiment [1] (exposure time 6 h), 3.0; in experiment [1] (exposure time 8 h), 4.9; in experiment [1] (exposure time 10 h), 3.0; in experiment [1] (exposure time 27 h), 1.6; in experiment [3] (exposure time 27 h), 0.7. Besides, the MBEC result in experiment [1] (exposure time 2 to 4 h) is recorded as “≧79 mM”; in experiment [1] (exposure time 6 h) it was “≧79 mM”; in experiment [1] (exposure time 8 h), 59 ± 23 mM; in experiment [1] (exposure time 10 h) it was 59 ± 23 mM; in experiment [1] (exposure time 27 h) it was 26 ± 15 mM; in experiment [3] (exposure time 2 h) it was above 40 mM. In experiment [3] (exposure time 27 h), this compound displayed an MBEC of 59 ± 23 mM. Besides, the MIC was found to be 1.2 ± 0 mM in experiment [1] and 12 ± 5 mM in experiment [3]. Moreover, the MBC100 is on record as 20 ± 0 mM in experiment [1] (exposure time 2 to 4 h); 30 ± 11 mM in experiment [1] (exposure time 6 h); 12 ± 5 mM in experiment [1] (exposure time 8 h); 20 ± 0 mM in experiment [1] (exposure time 10 h); 16 ± 6 mM in experiment [1] (exposure time 27 h); above 40 mM in experiment [3] (exposure time 2 h). For the same compound, the “eradication of the biofilm cultures with extended exposure times” value in experiment [2] was “complete eradication”.
